Data taken from publication PMC7414126 (Scientific Reports, 2020).
Several values for one entry are separate records, joined by “and”; a condition that tells them apart may be missing. Equal values may be shown once.

Legend:
NLuc-hH2R [1] = target: T1, NLuc-hH2R (Homo sapiens, UniProt P25021); experiment: NanoBRET saturation binding assay
T1 construct: membrane signal peptide of the murine 5HT3A receptor (N); expressed in transfected cells
Experimental: KG, Wertheim, Germany). The cells were then incubated at 37 °C in a humidified atmosphere (no additional CO2) overnight. […] After 60 min incubation time at 27 °C, 10 μL of the substrate furimazine, which was diluted according to manufacturer's protocol beforehand, were added. After 5 min of equilibration time at 27 °C, the measurement was started. […] After addition of the diluted substrate, the plate was placed inside the reader for 5 min to equilibrate. […] Dissociation experiments were conducted in wells, which have been preincubated with 8 as described above for association experiments. […] All measurements were performed on a TECAN InfiniteLumi plate reader (TECAN, Grödig, Austria) at 27 °C using the Blue2 NB (460 nm ± 35 nm, bandpass) and the Red NB (> 610 nm, longpass) filter combination with an integration time of 100 ms. For the kinetic experiments, integration time was increased to 500 ms for both channels to reduce noise. BRET ratios were calculated by dividing the acceptor emission (red NB) by the donor luminescence (Blue2 NB). For all BRET binding experiments, specific binding was calculated by subtracting non-specific binding from total binding yielding the “corrected BRET ratio”. For saturation binding experiments, total and non-specific binding were fitted simultaneously using the “one-site total and nonspecific binding” fit. Specific binding was fitted accordingly applying the “one-site specific binding” fit. […] The normalized competition binding curves were then fitted with a four-parameter logistic fit yielding pIC50-values. These were transformed into pKi-values using the Cheng-Prusoff equation[38].

NLuc-hH2R [2] = target: T1, NLuc-hH2R; experiment: Real-time NanoBRET kinetic binding experiments
Experimental: The cell line stably expressing the NLuc-hH2R construct was detached from the cell culture dishes after reaching ~ 80% confluency by treatment with trypsin/EDTA (0.05%/0.2%, for 2 min at 37 °C) and was centrifuged (600×g, 5 min). The cell pellet was then resuspended in Leibovitz’ L-15 medium (L-15), supplemented with 5% FCS + 10 mM HEPES, and 1.0 × 10^5 cells/well were seeded in 70 µL (saturation and competition binding) or 80 µL (kinetic experiments) of assay medium into white 96-well cell-Grade™ plates (Brand GmbH & Co. KG, Wertheim, Germany). The cells were then incubated at 37 °C in a humidified atmosphere (no additional CO2) overnight. For saturation binding experiments, serial dilutions (tenfold concentrated) of the fluorescent ligands (8–10) and famotidine (4, 300-fold excess over the respective concentration of fluorescent ligand, non-specific binding) were prepared in dilution buffer (L-15 + 2% BSA + 10 mM HEPES). 10 µL of the fluorescent ligand dilution and 10 µL of L-15 (total binding) or the dilution of 4 (non-specific binding) were added to the cells. After 60 min incubation time at 27 °C, 10 µL of the substrate furimazine, which was diluted according to manufacturer’s protocol beforehand, were added. After 5 min of equilibration time at 27 °C, the measurement was started. Competition binding experiments were performed as described above using one fixed concentration of fluorescent ligand 8 (c = 50 nM) and varying concentrations of the competitors 1–4, 11, 12, that were added at the same time. Kinetic measurements were performed as follows: 10 µL of L-15 (for total binding) or 4 (300-fold excess, c = 15 µM, non-specific binding) were added to the cells. After addition of the diluted substrate, the plate was placed inside the reader for 5 min to equilibrate. To start association 50 µL of a threefold concentrated solution of the fluorescent ligand 8 (cfinal = 50 nM) were added to the adherent cells and the plate was measured for 60 min. Dissociation experiments were conducted in wells, which have been preincubated with 8 as described above for association experiments. To initiate dissociation, 50 µL of a fourfold concentrated solution of 4 (300-fold excess, cfinal = 15 µM) were added to the cells and the measurement was performed for 4 h. All measurements were performed on a TECAN InfiniteLumi plate reader (TECAN, Grödig, Austria) at 27 °C using the Blue2 NB (460 nm ± 35 nm, bandpass) and the Red NB (> 610 nm, longpass) filter combination with an integration time of 100 ms. For the kinetic experiments, integration time was increased to 500 ms for both channels to reduce noise. BRET ratios were calculated by dividing the acceptor emission (red NB) by the donor luminescence (Blue2 NB).
For kinetic experiments, association experiments were fitted with the “one-phase association” fit yielding kobs, whereas the dissociation experiments were fitted assuming a “one-phase decay” model resulting in koff. The association rate constant kon was calculated using the following equation: kon = (kobs − koff)/c(ligand); c(ligand) = 50 nM. Dissociation half-life t1/2 was calculated applying the following formula: t1/2 = ln(2)/koff.The kinetic equilibrium dissociation constant Kd(kin) was calculated as follows: Kd(kin) = koff/kon. The errors for kon, t1/2 and Kd(kin) were calculated according to the Gaussian law of error propagation. All experimental data were analyzed using Prism 8 software (GraphPad, San Diego, CA, USA).

T1 sequence (P25021 whole entry): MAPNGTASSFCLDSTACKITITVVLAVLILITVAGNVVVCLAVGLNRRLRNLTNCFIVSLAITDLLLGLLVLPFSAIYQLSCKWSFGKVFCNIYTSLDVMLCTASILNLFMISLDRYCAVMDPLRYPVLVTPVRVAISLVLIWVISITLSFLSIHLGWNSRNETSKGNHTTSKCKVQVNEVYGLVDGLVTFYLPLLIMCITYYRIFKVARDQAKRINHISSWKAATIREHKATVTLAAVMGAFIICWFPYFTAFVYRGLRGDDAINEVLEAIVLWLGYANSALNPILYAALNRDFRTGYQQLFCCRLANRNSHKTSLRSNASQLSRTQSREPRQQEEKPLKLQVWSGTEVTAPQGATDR

**Q.** With `Cc1cc(/C=C/c2cc3c4c(c2)CCCN4CCC3)cc(C)[n+]1CCCCNc1c(NCCCOc2cccc(CN3CCCCC3)c2)c(=O)c1=O` [Compound 8, (E)-1-(4-((3,4-Dioxo-2-((3-(3-(piperidin-1-ylmethyl)phenoxy)propyl)amino)cyclobut-1-en-1-yl)amino)butyl)-2,6-dimethyl-4-(2-(2,3,6,7-tetrahydro-1H,5H-pyrido[3,2,1-ij]quinolin-9-yl)vinyl)pyridin-1-ium] as the compound, how does the Kd (NLuc-hH2R [1]; representative NanoBRET saturation isotherm, result from single experiment, HEK293T NLuc-hH2R, read-out: Kd* (single experiment)) read?
**A.** 29.4 nM

**Q.** And the Kd (NLuc-hH2R [1]; saturation binding, live HEK293T cells stably expressing NLuc-hH2R, mean ± SEM, read-out: pKd (NanoBRET) (converted))?
**A.** 44.7 nM

**Q.** What about the “Time to full association (fully bound to the receptor)” value (NLuc-hH2R [2]; 50 nM of 8) of the same compound?
**A.** approximately 30 min

**Q.** What about the “Amount of ligand displaced within 240 min” value (NLuc-hH2R [2]; 300-fold excess famotidine (15 µM), after 60 min preincubation with 50 nM 8) of the same compound?
**A.** 35–40%

**Q.** What about the Kd (NLuc-hH2R [2]; Kd(kin) = koff/kon) of the same compound?
**A.** 1.3 ± 0.16 nM

**Q.** What about the kobs (NLuc-hH2R [2]; association of 8, c = 50 nM, mean ± SEM, four experiments) of the same compound?
**A.** 0.093 ± 0.009 min⁻¹

**Q.** What about the koff (NLuc-hH2R [2]; dissociation started with famotidine 15 µM after 60 min preincubation with 50 nM 8) of the same compound?
**A.** 3.83e-05 s⁻¹

**Q.** And the kon (NLuc-hH2R [2]; kon = (kobs − koff)/c(ligand), c = 50 nM, read-out: kon (association rate constant) (converted))?
**A.** 30000 M⁻¹ s⁻¹

**Q.** And the “Dissociation half-life t1/2” value (NLuc-hH2R [2]; t1/2 = ln(2)/koff)?
**A.** 300 min and 300.4 ± 19.90 min
